According to patent publication US20240150293A1, “SPIROCYCLOHEXANE DERIVATIVES, PHARMACEUTICAL COMPOSITIONS CONTAINING THEM AND THEIR USES AS ANTI-APOPTOTIC INHIBITORS” (LES LABORATOIRES SERVIER, priority 2021, published 2024):

Molecular target: Mcl-1 protein (UniProtKB Q07820) (Homo sapiens (Human), UniProt Q07820)
Assay: Inhibition of Mcl-1 by the fluorescence polarisation assay (Example A, Method A)
Format: binding
Details: fluorescence polarization assay
In short: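 Protein (5 nM) and fluorescein-tagged peptide tracer (1 nM) incubated with 11-point compound series for 2 h at room temperature in HEPES/NaCl/Tween 20 buffer, pH 7.4, 5% DMSO. Displacement read as decrease in polarisation; IC50 fitted by 4-parameter logistic, converted to Ki (cKi or eKi).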

Sequence of Mcl-1 protein (Q07820 whole entry): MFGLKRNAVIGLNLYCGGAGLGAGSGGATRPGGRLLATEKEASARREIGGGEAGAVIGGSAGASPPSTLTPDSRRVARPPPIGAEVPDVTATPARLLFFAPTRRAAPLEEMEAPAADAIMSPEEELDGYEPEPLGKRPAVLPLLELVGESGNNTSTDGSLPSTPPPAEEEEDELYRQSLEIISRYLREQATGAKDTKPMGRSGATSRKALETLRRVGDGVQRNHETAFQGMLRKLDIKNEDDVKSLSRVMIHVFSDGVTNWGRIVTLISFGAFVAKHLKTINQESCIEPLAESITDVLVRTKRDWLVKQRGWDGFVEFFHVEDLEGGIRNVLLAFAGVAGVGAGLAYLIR

SMILES | Ki [nM]
COCCOc1ccc2c(c1)[C@]1(CC2)CC[C@](Nc2cccc(Br)c2)(C(=O)O)CC1 [Example 67, (1r,4s)-4-(3-bromoanilino)-6′-(2-methoxyethoxy)-2′,3′-dihydrospiro[cyclohexane-1,1′-indene]-4-carboxylic acid] | 101
O=C(O)[C@]1(Nc2cccc(Cl)c2)CC[C@@]2(CC1)c1ccccc1CC2CCCSc1ccccc1 (stereo partly shown) [Example 397, (1r,4r)-4-(3-chloroanilino)-2′-[3-(phenylsulfanyl)propyl]-2′,3′-dihydrospiro[cyclohexane-1,1′-indene]-4-carboxylic acid] | 598
Cc1ccc(C2Cc3ccccc3C23CCC(Nc2cccc(Br)c2)(C(=O)O)CC3)s1 (single isomer, unassigned) [Example 263, 4-(3-bromoanilino)-2′-(5-methylthiophen-2-yl)-2′,3′-dihydrospiro[cyclohexane-1,1′-indene]-4-carboxylic acid] | 5020
COc1ccc2c(c1)[C@]1(CC[C@@](Nc3cccc(Cl)c3)(C(=O)O)CC1)C(c1cccc(C)c1)=C2 [Example 366, (1r,4r)-4-(3-chloroanilino)-6′-methoxy-2′-(3-methylphenyl)spiro[cyclohexane-1,1′-indene]-4-carboxylic acid] | 1390
O=C(O)[C@]1(Nc2cccc(Cl)c2)CC[C@@]2(CC1)c1ccccc1CC2CCCSc1ccncc1 (stereo partly shown) [Example 399, (1r,4r)-4-(3-chloroanilino)-2′-{3-[(pyridin-4-yl)sulfanyl]propyl}-2′,3′-dihydrospiro[cyclohexane-1,1′-indene]-4-carboxylic acid] | 299
O=C(O)[C@]1(Nc2cccc(Cl)c2)CC[C@]2(CC1)C(c1cccc(Cc3ccccc3)c1)=Cc1ccccc12 [Example 301, (1s,4s)-2′-(3-benzylphenyl)-4-(3-chloroanilino)spiro[cyclohexane-1,1′-indene]-4-carboxylic acid] | 491
O=C1CCc2c(OCCCC3Cc4ccccc4[C@]34CC[C@@](Nc3cccc(Cl)c3)(C(=O)O)CC4)cccc21 (stereo partly shown) [Example 435, (1r,4r)-4-(3-chloroanilino)-2′-{3-[(1-oxo-2,3-dihydro-1H-inden-4-yl)oxy]propyl}-2′,3′-dihydrospiro[cyclohexane-1,1′-indene]-4-carboxylic acid] | 555
COc1ccc(C2Cc3ccccc3[C@]23CC[C@@](Nc2cccc(Cl)c2)(C(=O)O)CC3)c(Cl)c1 (single isomer, unassigned) [Example 268, (1r,4r)-4-(3-chloroanilino)-2′-(2-chloro-4-methoxyphenyl)-2′,3′-dihydrospiro[cyclohexane-1,1′-indene]-4-carboxylic acid] | 1020
O=C(O)[C@]1(Nc2cccc(Br)c2)CC[C@@]2(CC1)C(C#CCOc1ccccc1)=Cc1ccccc12 [Example 165, (1r,4r)-4-(3-bromoanilino)-2′-(3-phenoxyprop-1-yn-1-yl)spiro[cyclohexane-1,1′-indene]-4-carboxylic acid] | 90400
O=C(O)[C@]1(Nc2cccc(Cl)c2)CC[C@]2(CC1)C(C1CC(OCc3ccccc3)C1)=Cc1ccccc12 (stereo partly shown) [Example 97, (1r,4r)-2′-[3-(benzyloxy)cyclobutyl]-4-(3-chloroanilino)spiro[cyclohexane-1,1′-indene]-4-carboxylic acid] | 578
Cc1cc(OCCCC2Cc3ccccc3C23CCC(Nc2cccc(Cl)c2)(C(=O)O)CC3)cc(C)c1Cl (stereo not shown) [Example 436, (1r,4r)-4-(3-chloroanilino)-2′-[3-(4-chloro-3,5-dimethylphenoxy)propyl]-2′,3′-dihydrospiro[cyclohexane-1,1′-indene]-4-carboxylic acid] | 918
O=C(O)[C@]1(Nc2cccc(Cl)c2)CC[C@]2(CC1)C(c1ccc(OCc3cccnc3)cc1)=Cc1ccccc12 [Example 350, (1s,4s)-4-(3-chloroanilino)-2′-{4-[(pyridin-3-yl)methoxy]phenyl}spiro[cyclohexane-1,1′-indene]-4-carboxylic acid] | 1750
O=C(O)C1(Nc2cccc(Br)c2)CCC2(CC1)CNc1ccccc12 (stereo not shown) [Example 3, 4-(3-bromoanilino)-1′,2′-dihydrospiro[cyclohexane-1,3′-indole]-4-carboxylic acid] | 12800
O=C(O)[C@]1(Nc2cccc(Br)c2)CC[C@@]2(CC1)C(=O)N(Cc1ccccc1)c1ccccc12 [Example 13, (1r,4r)-1′-benzyl-4-(3-bromoanilino)-2′-oxo-1′,2′-dihydrospiro[cyclohexane-1,3′-indole]-4-carboxylic acid] | 7080
O=C(O)[C@]1(Nc2cccc(Cl)c2)CC[C@]2(CC1)C(c1ccc(Oc3ccncc3)cc1)=Cc1ccccc12 [Example 342, (1s,4s)-4-(3-chloroanilino)-2′-{4-[(pyridin-4-yl)oxy]phenyl}spiro[cyclohexane-1,1′-indene]-4-carboxylic acid] | 785
COc1ccc(C2=Cc3ccccc3[C@]23CC[C@@](Nc2cccc(Cl)c2)(C(=O)O)CC3)cc1C [Example 225, (1s,4s)-4-(3-chloroanilino)-2′-(4-methoxy-3-methylphenyl)spiro[cyclohexane-1,1′-indene]-4-carboxylic acid] | 1020

SMILES | Ki [nM]
CCOc1cccc(C2=Cc3ccccc3[C@]23CC[C@@](Nc2cccc(Cl)c2)(C(=O)O)CC3)c1 [Example 313, (1s,4s)-4-(3-chloroanilino)-2′-(3-ethoxyphenyl)spiro[cyclohexane-1,1′-indene]-4-carboxylic acid] | 385
O=c1ccn(CCCC2Cc3ccccc3[C@]23CC[C@@](Nc2cccc(Cl)c2)(C(=O)O)CC3)cc1 (stereo partly shown) [Example 167, (1r,4r)-4-(3-chloroanilino)-2′-[3-(4-oxopyridin-1 (4H)-yl)propyl]-2′,3′-dihydrospiro[cyclohexane-1,1′-indene]-4-carboxylic acid] | 32700
COc1ccc([C@@H]2Cc3ccccc3[C@]23CC[C@@](Nc2cccc(Br)c2)(C(=O)O)CC3)cc1 [Example 217, (1r,2′S,4S)-4-(3-bromoanilino)-2′-(4-methoxyphenyl)-2′,3′-dihydrospiro[cyclohexane-1,1′-indene]-4-carboxylic acid] | 484
COc1cc(Cl)cc(C2Cc3ccccc3[C@]23CC[C@@](Nc2cccc(Cl)c2)(C(=O)O)CC3)c1 (single isomer, unassigned) [Example 347, (1r,4r)-4-(3-chloroanilino)-2′-(3-chloro-5-methoxyphenyl)-2′,3′-dihydrospiro[cyclohexane-1,1′-indene]-4-carboxylic acid] | 1130
O=C(O)[C@]1(Nc2cccc(Cl)c2)CC[C@@]2(CC1)c1ccccc1CC2c1ccc(Cl)cc1 (single isomer, unassigned) [Example 319, (1r,4r)-4-(3-chloroanilino)-2′-(4-chlorophenyl)-2′,3′-dihydrospiro[cyclohexane-1,1′-indene]-4-carboxylic acid] | 906
O=C(O)[C@]1(Nc2cccc(Cl)c2)CC[C@@]2(CC1)c1ccccc1CC2CCCOc1ccnc2ccoc12 (stereo partly shown) [Example 447, (1r,4r)-4-(3-chloroanilino)-2′-{3-[(furo[3,2-b]pyridin-7-yl)oxy]propyl}-2′,3′-dihydrospiro[cyclohexane-1,1′-indene]-4-carboxylic acid] | 127
O=C(O)[C@]1(Nc2cccc(Cl)c2)CC[C@@]2(CC1)c1ccccc1CC2CCCOc1cccc2[nH]cnc12 (stereo partly shown) [Example 469, (1r,4r)-2′-{3-[(1H-benzimidazol-4-yl)oxy]propyl}-4-(3-chloroanilino)-2′,3′-dihydrospiro[cyclohexane-1,1′-indene]-4-carboxylic acid] | 324
COCC(COC)CC1=Cc2ccccc2[C@]12CC[C@@](Nc1cccc(Cl)c1)(C(=O)O)CC2 [Example 493, (1r,4r)-4-(3-chloroanilino)-2′-[3-methoxy-2-(methoxymethyl)propyl]spiro[cyclohexane-1,1′-indene]-4-carboxylic acid] | 1780
O=C(O)[C@]1(Nc2cccc(Cl)c2)CC[C@@]2(CC1)c1ccccc1CC2CCCOc1ccccc1Cl (stereo partly shown) [Example 431, (1r,4r)-4-(3-chloroanilino)-2′-[3-(2-chlorophenoxy)propyl]-2′,3′-dihydrospiro[cyclohexane-1,1′-indene]-4-carboxylic acid] | 138
COc1cccc(C2=Cc3ccccc3[C@]23CC[C@@](Nc2cccc(Cl)c2)(C(=O)O)CC3)c1C [Example 299, (1s,4s)-4-(3-chloroanilino)-2′-(3-methoxy-2-methylphenyl)spiro[cyclohexane-1,1′-indene]-4-carboxylic acid] | 410
COc1ccc(C2=Cc3ccccc3[C@]23CC[C@@](Nc2cccc(Cl)c2)(C(=O)O)CC3)cc1 [Example 230, (1s,4s)-4-(3-chloroanilino)-2′-(4-methoxyphenyl)spiro[cyclohexane-1,1′-indene]-4-carboxylic acid] | 1060
O=C(O)[C@]1(Nc2cccc(Cl)c2)CC[C@@]2(CC1)c1ccccc1CC2CCOc1cccc2[nH]ccc12 (stereo partly shown) [Example 185, (1r,4r)-4-(3-chloroanilino)-2′-{2-[(1H-indol-4-yl)oxy]ethyl}-2′,3′-dihydrospiro[cyclohexane-1,1′-indene]-4-carboxylic acid] | 74
Cc1cnccc1OCCC1=Cc2ccccc2[C@]12CC[C@@](Nc1cccc(Cl)c1)(C(=O)O)CC2 [Example 189, (1r,4r)-4-(3-chloroanilino)-2′-{2-[(3-methylpyridin-4-yl)oxy]ethyl}spiro[cyclohexane-1,1′-indene]-4-carboxylic acid] | 121
COc1cccc(CCOCC2=Cc3ccccc3[C@]23CC[C@@](Nc2cccc(Cl)c2)(C(=O)O)CC3)c1 [Example 418, (1s,4s)-4-(3-chloroanilino)-2′-{[2-(3-methoxyphenyl)ethoxy]methyl}spiro[cyclohexane-1,1′-indene]-4-carboxylic acid] | 648
CN(CCc1ccccc1)C(=O)C1Cc2ccccc2[C@]12CC[C@@](Nc1cccc(Cl)c1)(C(=O)O)CC2 (single isomer, unassigned) [Example 407, (1r,4r)-4-(3-chloroanilino)-2′-[methyl(2-phenylethyl)carbamoyl]-2′,3′-dihydrospiro[cyclohexane-1,1′-indene]-4-carboxylic acid] | 1370
